Results taken from PMC10767396 (Advanced Science, 2023).

Key:
BV2 cells [1] = assay: Stereomicroscopic images of BV2 cell morphology; assay type: cell-based, murine
From the text: Stereomicroscopic images were captured before and after the treatment of different concentrations of PB118 on BV2 cells to elucidate the cytotoxicity based on the cellular morphology of BV2 cells by using Invitrogen EVOS XL Core stereo microscope.

BV2 cells [2] = assay: Microglial Aβ phagocytosis, MSD Aβ peptide panel 1 (4G8); assay type: cell-based, murine; conditions: Aβ42 2 µg/mL + PB118 500 and 1000 nM, 6 h, vs control
Procedure: (§1) Briefly, for microglia‐related amyloid (Aβ) phagocytosis study, BV2 cells were seeded in a 6‐well confocal dish (400k cells mL^−1) and cultured overnight for ≈90% confluency. […] Then, media were collected to perform the LDH assay for cell cytotoxicity assessment. Cells were washed carefully with PBS (2x) and lysed by adding 200 µL of MPER++ (10 mL MPER with 1% protease cocktail inhibitor and 1% EDTA) in each well. Cell lysates were collected in 1.5 mL Eppendorf tube and centrifuged at 12 000 rpm at 4 °C for 15 min and supernatants were collected for further studies. Total protein was quantified using the BCA protein assay kit (Pierce). Briefly, BV2 cells were cultured following previously published methods and grew in DMEM media containing 10% heat‐inactivated fetal bovine serum, 2 mM L‐Glutamine, and 1% penicillin/streptomycin (Life Technologies). […] Subsequently, media were collected and applied to LDH to assess cell viability; cells were extensively washed with PBS and were lysed in MPER lysis buffer (MPER++) supplemented with EDTA‐free protease inhibitors (Roche), Halt phosphatase inhibitor cocktail (Thermo Fisher Scientific). Lysates were centrifuged as before (12 000 rpm at 4 °C for 15 min) and supernatants were collected for further analysis. […]

BV2 cells [3] = assay: Immunocytochemistry (ICC) in BV2 cells; assay type: cell-based, murine
Procedure: ICC was performed following previously published articles.^[ [36] ^] Briefly, BV2 cells were seeded and grown overnight in a LabTek 8‐well chamber wells having ≈100 k cells well^−1. […] Discarded the media after 3 h, washed each well carefully with 150–300 µL of PBS (2x), and fixed with 4% PFA for 20 min at r.t. After that, washed each well again with 150–300 µL of PBS (2x) at r.t and incubated with blocking buffer (5% Donkey serum with 0.1% Triton‐X‐100 in PBS). Aspirate the blocking buffer and add 150 µL of primary antibody in each well and keep it at 4 °C for overnight shaking. Washed with washing buffer (PBS containing 0.1% Triton‐X‐100, 0.05% Tween‐20) twice and incubated with specific secondary antibody in each of the wells with gently shaking for 2 h at r.t. Discarded secondary solution and washed with washing buffer twice and incubated 10 min with 2 nM of Hoechst solution for another 10 min at r.t, washed with PBS (two times) and finally mounted with Prolong Gold antifade reagent, dried at r.t, and covered with a cover slip. Microscopic images were captured with these slides to understand the activity of HDAC6 toward tubulin/microtubule.

[4] = set-up: method as in PMID 36213537; conditions: human liver microsomes; cited from earlier work
46 CNS‐related targets = tested on: 46 CNS‐related targets; set-up: method as in PMID 36213537; conditions: cited from earlier work
[5] = tested on: human microglia HMC3 cells; assay: LDH assay and stereomicroscopy in HMC3 cells; assay type: cell-based; conditions: PB118 500 and 1000 nM, 6 h
Procedure: The previously reported CytoTox‐ONE assay was performed to analyze cell viability by measuring the release of lactate dehydrogenase (LDH) following the manufacturer's guidelines (Promega; Madison, WI). Briefly, 50 µL of cell culture media was utilized and a 1:1 dilution of substrate was added. […] Under the influence of the assay's substrate, resazurin was converted to resorufin, its fluorescent form, owing to LDH. The fluorometric results were used to compare the experiment group to the control group to assess the cytotoxicity of treated compounds.

[6] = set-up: method as in PMID 36213537; conditions: cited from earlier work
BV2 cells [7] = assay: Cold depolymerization assay; assay type: cell-based, murine; conditions: PB118 500 nM 24 h, on ice 10 and 20 min in comparison to 0 min
Procedure: To perform this assay, BV2 cells were seeded and cultured in an 8‐well Labtek chamber slide for overnight (100 k well^−1). […] Then cells were incubated on ice to induce microtubule depolymerization and were fixed using 4% PFA at different time points (0, 10, and 20 min). After that, cells were washed with PBS three times and blocked with blocking buffer (5% Donkey serum with 0.1% Triton‐X‐100 in PBS) and immunostaining was performed with these fixed cells against α‐tubulin (green) and acetylated α‐tubulin (red) antibodies. Appropriate secondary antibodies were used for visualization of these cells and images were captured in a Nikon C2 confocal microscopy.

[8] = Stability in human serum (HPLC); assay type: in vitro ADME; conditions: 37 °C
HDAC1 = conditions: read-out: IC50 for HDAC1; enzyme inhibition assay; cited from earlier work
[9] = set-up: method as in PMID 36213537; conditions: C57BL/6 mice, i.p. 1 mg kg^-1, blood and brain at 30 min, 1 and 4 h; cited from earlier work
HDAC6 enzyme = conditions: read-out: IC50 for HDAC6; enzyme inhibition assay; cited from earlier work
[10] = tested on: 3D human neural stem cell model of AD (ReNcell VM); assay: MSD phospho (Thr231)/total tau and Aβ (6E10) assay in 3D-AD culture; assay type: cell-based; conditions: 3 weeks
Procedure: (§2) Human precursor ReN cells were used to prepare 3D AD environment following previous work.^[ [30] ^] Briefly, for 3D layers of cells, BD Matrigel stock solution (BD Biosciences) was diluted with ReN cell differentiation medium (in 1:15 dilution) (chilled) followed by vertexing with the cell pellets for 20 s. A final cell concentration of ≈2 × 10^6 cells mL^−1 was used and this cell/ Matrigel mixtures were immediately transferred ([…] in each) into an Optilux clear bottom 96‐well plates (BD Biosciences). A thin layer ([…]) of 3D gels was formed at the bottom of the plates after incubating the plates at 37 °C for 1 h and the media were changed. For differentiation before drug treatment, 3D‐plated cells were cultured for 6 weeks, and the media were changed every 3–4 days. […] The cells were harvested for extraction using a lysis buffer mixture (Lysis 6 buffer with protease inhibitor; 1:100), followed by shaking for 1 h at cold room and centrifugation at 2 k rpm for 30 min. Supernatants were collected and further analyzed by MSD immunoassay kit and western blot analysis.
(§3) MSD immunoassays are quite robust and based on combining multiarray technology and electrochemiluminescence to identify numerous proteins in a single sample.

BV2 cells [11] = assay: LDH cytotoxicity assay in BV2 cells; assay type: cell-based, murine
Procedure: as §1

[12] = tested on: 3D human neural stem cell model of AD (ReNcell VM); assay: LDH assay in 3D human neural culture; assay type: cell-based; conditions: PB118 1 or 5 µM, 3 weeks
Procedure: as §2, with “analysis. The previously reported CytoTox‐ONE assay was performed to analyze cell viability by measuring the release of lactate dehydrogenase (LDH) following the manufacturer's guidelines (Promega; Madison, WI). Briefly, 50 µL of cell culture media was utilized and a 1:1 dilution of substrate was added. […]” for “analysis.”

BV2 cells [13] = assay: Western blot of PB118-treated BV2 cell lysates; assay type: cell-based, murine; conditions: PB118 500 and 1000 nM, 6 h
Procedure: The previously described WB method was implemented to perform and analyze western blot membrane.^[ [34] ^] […] Proteins were separated by the electrophoresis using the 4–12% Bis‐Tris SDS‐PAGE Gel System (Invitrogen, Thermo Fisher Scientific), followed by membrane transfer to PVDF membranes (Invitrogen, Thermo Fischer scientific). Next, the membranes were blocked for 30 min with the Superblock (Thermo Scientific) and then incubated overnight with primary antibodies following the dilutions mentioned below. The membranes were then washed with TBST (four times) and incubated with appropriate secondary antibodies (1:10 000 dilution) at room temperature for 2 h. Then, membranes were incubated with Supersignal West Femto (Life Technologies), and the images for immunoreactivity were developed and visualized by the LICOR Odyssey Fc. Quantifications of proteins of interest were performed by Image J software.

LPS induced BV2 cells = assay: Multiplex MSD-cytokine assay in LPS-induced BV2 cells; assay type: cell-based, murine; conditions: LPS 10 ng/mL + PB118 500/1000 nM, 24 h, media
Procedure: Briefly, for microglia‐related amyloid (Aβ) phagocytosis study, BV2 cells were seeded in a 6‐well confocal dish (400k cells mL^−1) and cultured overnight for ≈90% confluency. […] Then, media were collected to perform the LDH assay for cell cytotoxicity assessment. Cells were washed carefully with PBS (2x) and lysed by adding 200 µL of MPER++ (10 mL MPER with 1% protease cocktail inhibitor and 1% EDTA) in each well. Cell lysates were collected in 1.5 mL Eppendorf tube and centrifuged at 12 000 rpm at 4 °C for 15 min and supernatants were collected for further studies. Total protein was quantified using the BCA protein assay kit (Pierce). Briefly, BV2 cells were cultured following previously published methods and grew in DMEM media containing 10% heat‐inactivated fetal bovine serum, 2 mM L‐Glutamine, and 1% penicillin/streptomycin (Life Technologies). […] Subsequently, media were collected and applied to LDH to assess cell viability; cells were extensively washed with PBS and were lysed in MPER lysis buffer (MPER++) supplemented with EDTA‐free protease inhibitors (Roche), Halt phosphatase inhibitor cocktail (Thermo Fisher Scientific). Lysates were centrifuged as before (12 000 rpm at 4 °C for 15 min) and supernatants were collected for further analysis.
as §3

[14] = higher concentration of PB118 (1 or 5 µM tested)

Question: With O=C(NO)c1ccc(CN2CCCCc3ccccc32)c(F)c1 [PB118] as the compound, how does the “cell morphology (stereomicroscopic images)” value (BV2 cells [1]; LPS +/- PB118, 24 h) read?
Answer: no significant difference of cell morphology

Question: What about the “cell morphology (microscopic images before and after treatment)” value (BV2 cells [1]; PB118 with or without Aβ42, 6 h) of the same compound?
Answer: no significant change in cell morphology

Question: And the “Aβ42 levels in cell lysates (phagocytosis)” value (BV2 cells [2])?
Answer: significant increase

Question: And the “HDAC6 expression (ICC)” value (BV2 cells [3]; LPS 10 ng/mL + PB118 500 nM)?
Answer: lack of significant change

Question: And the “α-tubulin network (ICC)” value (BV2 cells [3]; LPS 10 ng/mL + PB118 500 nM)?
Answer: lack of significant change

Question: What about the “acetylated tubulin levels (ICC) with or without LPS” value (BV2 cells [3]; PB118 500 nM with or without LPS 10 ng/mL) of the same compound?
Answer: no change

Question: What about the “acetyl α-tubulin expression (ICC)” value (BV2 cells [3]; PB118 500 nM, 3 h, vs vehicle) of the same compound?
Answer: higher compared to vehicle

Question: And the “half-life in human microsomal liver” value [4]?
Answer: 1.13 h

Question: What about the off-target binding profile (46 CNS‐related targets) of the same compound?
Answer: good off‐target binding profile

Question: And the “morphology and cytotoxicity (stereomicroscopy, LDH assay)” value [5]?
Answer: no detrimental change in morphology or cytotoxicity

Question: What about the “binding with human plasma” value [6] of the same compound?
Answer: 99.4%

Question: What about the “acetylated α-tubulin protein expression in cold depolymerization condition” value (BV2 cells [7]) of the same compound?
Answer: significantly higher

Question: What about the decay constant in human serum [8] of the same compound?
Answer: 6.3e-06 s⁻¹

Question: What about the “mean lifetime in human serum” value [8] of the same compound?
Answer: 43.6 h

Question: What about the “compound remaining in human serum” value ([8]; after 24 h, HPLC) of the same compound?
Answer: ≈ 57%

Question: And the “half-life (t1/2) in human serum” value ([8]; calculated by formula of Figure S2b)?
Answer: 30.2 h

Question: And the half-life at 5 mM ([8]; human, calculated by formula of Figure S2b, read-out: half-life (t1/2) in human serum (converted))?
Answer: ~30.2 h

Question: And the IC50 (HDAC1)?
Answer: 7.82 µM

Question: What about the “BBB crossing (brain/plasma study)” value [9] of the same compound?
Answer: BBB crossing ability

Question: What about the IC50 (HDAC6 enzyme) of the same compound?
Answer: 0.0056 µM

Question: What about the Aβ42 generation ([10]; PB118 1 or 5 µM) of the same compound?
Answer: significantly reduced

Question: And the “p-tau (Thr231) level” value [10, 14]?
Answer: significantly reduced

Question: What about the total tau level [10, 14] of the same compound?
Answer: significantly reduced

Question: What about the “cell viability (LDH assay)” value (BV2 cells [11]; LPS 10 ng/mL +/- PB118 500 or 1000 nM, 24 h, treated vs control) of the same compound?
Answer: No significant difference

Question: And the “cytotoxicity (LDH assay)” value (BV2 cells [11]; PB118 500 and 1000 nM with or without Aβ42 (2 µg/mL), 6 h)?
Answer: no significant cytotoxicity

Question: And the “cytotoxicity (LDH assay)” value [12]?
Answer: no cytotoxicity

Question: And the “HDAC6 expression (WB, normalized to β-actin)” value (BV2 cells [13])?
Answer: non‐significant change

Question: And the “Ac-α-tubulin protein level (WB, normalized to α-tubulin)” value (BV2 cells [13]; vs control)?
Answer: significant increase

Question: And the IL-12p-70 level (LPS induced BV2 cells)?
Answer: significant reductions

Question: And the “KC/GRO (CXCL1) level” value (LPS induced BV2 cells)?
Answer: significant reductions

Question: And the “interleukin-6 (IL-6) level” value (LPS induced BV2 cells)?
Answer: significant reductions
